≈ marks a conversion by molar mass, not a printed value.
How the values were obtained:
S. aureus UC-20205 = assay: Determination of minimum inhibitory concentration (microdilution); format: cell-based; conditions: Staphylococcus aureus, UC20205, 18 h
[1] = Resistance to thermal decomposition; format: physicochemical
Excerpt: The medical device can be, for example, a suture, orthopedic appliance, stent, catheter, guidewire, shunt (e.g., hemodialysis shunt or cerebrospinal shunt), prosthesis (e.g., prosthetic heart valve or prosthetic joint), cardiac pacemaker, neuronal stimulator, or vascular graft. The medical device can be made of biomaterials (i.e., biologically-compatible materials known to those skilled in the art, such as metal, polymeric, or ceramic materials). The antimicrobial agent can be incorporated into the medical device according to methods known to those skilled in the art, such as by immersing the medical device in a solution (e.g., an aqueous solution) containing the antimicrobial agent, or, for example, by methods described in one of the following references: U.S. Pat. No. 3,987,797; U.S. Pat. No. 4,563,485; U.S. Pat. No. 4,875,479; U.S. Pat. No. 4,946,870; U.S. Pat. No. 5,306,289; U.S. Pat. No. 5,584,877; U.S. Pat. No. 5,607,685; U.S. Pat. No. 5,788,979; U.S. Pat. No. 6,143,037; U.S. Pat. No. 6,238,687; WO00/56283; and WO 01/28601, the disclosures of which are incorporated herein by reference. The medical device can include a polymeric material, and the polymeric material can be co-extruded with the antibacterial agent. […]

With `CC(=O)NC[C@H]1CN(c2ccc(N3CCOCC3)c(F)c2)C(=O)O1` [Linezolid, (S)-N-[[3-[3-fluoro-4-(4-morpholinyl)phenyl]-2-oxo-5-oxazolidinyl]methyl]acetamide] the MIC (S. aureus UC-20205) was 2 µg/mL (≈ 5.93 µM) and the “temperature up to which resistant to thermal decomposition” value [1] was “at least 121 °C”.

Reference: US7322965B2, “Infection-resistant medical devices” (priority 2002, dated 2008)
